Experimental data taken from PubChem BioAssay AID1963956 (Xavier Lab, Infectious Disease and Microbiome Program, …, 2024).
Activity calls are given as the source filed them.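 How the source made its calls: active means caspase-3 cutting of the mutant autophagy protein ATG16L1 lowered by over half at 20 µM; inactive means the rest.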

Target: Autophagy-related protein 16-1 (Homo sapiens) (UniProt Q676U5)
Assay: blockers of caspase-3 processing of ATG16L1 variant – biochemical, AlphaLISA, recombinant protein, with or without FKBP12, dose response (AID 1963956)
Settings: recombinant ATG16L1 T300A + caspase-3, AlphaLISA

Chain of Autophagy-related protein 16-1 (Homo sapiens) (Q676U5 whole entry T300A, looked up): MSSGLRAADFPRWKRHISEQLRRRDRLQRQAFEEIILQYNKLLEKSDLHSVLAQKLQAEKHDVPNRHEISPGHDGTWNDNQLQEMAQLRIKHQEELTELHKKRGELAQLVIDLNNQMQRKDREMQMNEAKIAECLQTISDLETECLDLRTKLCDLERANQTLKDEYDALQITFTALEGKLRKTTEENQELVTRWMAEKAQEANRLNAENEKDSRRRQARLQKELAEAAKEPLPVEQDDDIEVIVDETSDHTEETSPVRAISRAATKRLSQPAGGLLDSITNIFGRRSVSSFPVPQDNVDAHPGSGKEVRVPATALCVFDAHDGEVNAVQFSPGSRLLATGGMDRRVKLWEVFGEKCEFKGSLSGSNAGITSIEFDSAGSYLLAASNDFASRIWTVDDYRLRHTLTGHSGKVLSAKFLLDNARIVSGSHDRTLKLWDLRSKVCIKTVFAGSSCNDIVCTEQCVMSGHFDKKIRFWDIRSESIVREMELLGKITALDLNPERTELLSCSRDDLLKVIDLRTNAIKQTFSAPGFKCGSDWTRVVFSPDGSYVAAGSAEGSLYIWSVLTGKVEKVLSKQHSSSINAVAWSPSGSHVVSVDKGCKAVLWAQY

SMILES	outcome (without FKBP12)	further results
CCC(C)(C)C(=O)C(=O)N1CCCC[C@H]1C(=O)N[C@H](CCc1ccc(OC)cc1)C(=O)N1CC[C@H](Nc2nc(NCCc3sc(N)nc3C)nc(N(C)Cc3nnc4n3CCC4)n2)C1	inactive	
CCC(C)(C)C(=O)C(=O)N1CCCC[C@H]1C(=O)N[C@H](CCc1ccc(OC)cc1)C(=O)N1[C@@H]2CC[C@H]1CC(Nc1nc(NCCc3sc(N)nc3C)nc(N(C)Cc3nnc4n3CCC4)n1)C2 (some centres not stated)	inactive	
CCC(C)(C)C(=O)C(=O)N1CCCC[C@H]1C(=O)N[C@H](CCc1ccc(OC)cc1)C(=O)N1[C@@H]2CC[C@H]1CC(Nc1nc(NCCc3sc(N)nc3C)nc(NCCn3cnc4ccccc43)n1)C2 (some centres not stated)	inactive	
CCC(C)(C)C(=O)C(=O)N1CCCC[C@H]1C(=O)N[C@H](CCc1ccc(OC)cc1)C(=O)N1CC(Nc2nc(NCCc3sc(N)nc3C)nc(NCCn3cnc4ccccc43)n2)C1	inactive	
CCC(C)(C)C(=O)C(=O)N1CCCC[C@H]1C(=O)N[C@H](CCc1ccc(OC)cc1)C(=O)N1[C@@H]2CC[C@H]1CC(Nc1nc(NCCc3ccccc3)nc(N3CCn4ncnc4C3)n1)C2 (some centres not stated)	inactive	outcome (with FKBP12): inactive
CC(=O)N1[C@@H]2CC[C@H]1CC(Nc1nc(NCCc3sc(N)nc3C)nc(N3CCn4ncnc4C3)n1)C2 (some centres not stated)	inactive	outcome (with FKBP12): inactive
CCC(C)(C)C(=O)C(=O)N1CCCC[C@H]1C(=O)N[C@H](CCc1ccc(OC)cc1)C(=O)N1[C@@H]2CC[C@H]1CC(Nc1nc(NCCc3sc(N)nc3C)nc(N3CCn4ncnc4C3)n1)C2 (some centres not stated)		EC50 (with FKBP12): 10.8 µM; EC50 (without FKBP12): 12.1 µM
CCC(C)(C)C(=O)C(=O)N1CCCC[C@H]1C(=O)N[C@H](CCc1ccc(OC)cc1)C(=O)N1[C@@H]2CC[C@H]1CC(NC(C)=O)C2 (some centres not stated)	inactive	
CCC(C)(C)C(=O)C(=O)N1CCCC[C@H]1C(=O)N[C@H](CCc1ccc(OC)cc1)C(=O)N1[C@@H]2CC[C@H]1CC(Nc1nc(NCCc3sc(N)nc3C)nc(NCc3ccnc(CO)c3)n1)C2 (some centres not stated)	inactive	
